Measured values reported in PubChem BioAssay (NCI).
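How tested: cells in 96-well plates exposed to compound for 48 hours at five concentrations. TGI denotes the concentration required for complete inhibition of growth.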

What was measured:
Experiment in all cases: NCI-60 cell line screen, 48 h
[1] = tested on: 786-0 renal
[2] = tested on: A498 renal
[3] = tested on: A549 NSCLC
[4] = tested on: ACHN renal
[5] = tested on: CAKI-1 renal
[6] = tested on: COLO 205 colon
[7] = tested on: DU-145 prostate
[8] = tested on: EKVX NSCLC
[9] = tested on: HCC-2998 colon
[10] = tested on: HCT-116 colon
[11] = tested on: HCT-15 colon
[12] = tested on: HOP-62 NSCLC
[13] = tested on: HOP-92 NSCLC
[14] = tested on: HT29 colon
[15] = tested on: K-562 leukemia
[16] = tested on: KM12 colon
[17] = tested on: M14 melanoma
[18] = tested on: MALME-3M melanoma
[19] = tested on: MCF7 breast
[20] = tested on: MDA-MB-231 breast
[21] = tested on: MDA-MB-435
[22] = tested on: MDA-N
[23] = tested on: NCI-H23 lung
[24] = tested on: NCI-H460 lung
[25] = tested on: NCI-H522 lung
[26] = tested on: NCI/ADR-RES ovarian
[27] = tested on: OVCAR-3 ovarian
[28] = tested on: OVCAR-4 ovarian
[29] = tested on: OVCAR-5 ovarian
[30] = tested on: OVCAR-8 ovarian
[31] = tested on: PC-3 prostate
[32] = tested on: RXF 393 renal
[33] = tested on: SF-268 CNS
[34] = tested on: SF-295 CNS
[35] = tested on: SF-539 CNS
[36] = tested on: SK-MEL-2 melanoma
[37] = tested on: SK-MEL-28 melanoma
[38] = tested on: SK-OV-3 ovarian
[39] = tested on: SN12C renal
[40] = tested on: SNB-19 CNS
[41] = tested on: SW-620 colon
[42] = tested on: T-47D breast
[43] = tested on: TK-10 renal
[44] = tested on: U251 CNS
[45] = tested on: UACC-257 melanoma
[46] = tested on: UACC-62 melanoma
[47] = tested on: UO-31 renal
[48] = tested on: HL-60(TB) leukemia
[49] = tested on: HS 578T breast
[50] = tested on: IGROV1 ovarian
[51] = tested on: LOX IMVI melanoma
[52] = tested on: NCI-H226 lung
[53] = tested on: SK-MEL-5 melanoma
[54] = tested on: SNB-75 CNS

## CCn1c2ccccc2c2cc(Nc3cc(C)[nH]c(=O)n3)ccc21
[1]
  TGI: > 100 µM
[2]
  TGI: > 100 µM
[3]
  TGI: > 100 µM
[4]
  TGI: > 100 µM
[5]
  TGI: > 100 µM
[6]
  TGI: > 100 µM
[7]
  TGI: > 100 µM
[8]
  TGI: > 100 µM
[9]
  TGI: > 100 µM
[10]
  TGI: > 100 µM
[11]
  TGI: > 100 µM
[12]
  TGI: > 100 µM
[13]
  TGI: > 100 µM
[14]
  TGI: > 100 µM
[15]
  TGI: > 100 µM
[16]
  TGI: > 100 µM
[17]
  TGI: > 100 µM
[18]
  TGI: > 100 µM
[19]
  TGI: > 100 µM
[20]
  TGI: > 100 µM
[21]
  TGI: > 100 µM
[22]
  TGI: > 100 µM
[23]
  TGI: > 100 µM
[24]
  TGI: > 100 µM
[25]
  TGI: > 100 µM
[26]
  TGI: > 100 µM
[27]
  TGI: > 100 µM
[28]
  TGI: > 100 µM
[29]
  TGI: > 100 µM
[30]
  TGI: > 100 µM
[31]
  TGI: > 100 µM
[32]
  TGI: > 100 µM
[33]
  TGI: > 100 µM
[34]
  TGI: > 100 µM
[35]
  TGI: > 100 µM
[36]
  TGI: > 100 µM
[37]
  TGI: > 100 µM
[38]
  TGI: > 100 µM
[39]
  TGI: > 100 µM
[40]
  TGI: > 100 µM
[41]
  TGI: > 100 µM
[42]
  TGI: > 100 µM
[43]
  TGI: > 100 µM
[44]
  TGI: > 100 µM
[45]
  TGI: > 100 µM
[46]
  TGI: > 100 µM
[47]
  TGI: > 100 µM

## CC(C)(C)C1=C(Br)C(OC(=O)C(F)(F)F)(C(C)(C)C)OP1(=O)c1ccccc1 (stereo not drawn)
[1]
  TGI: > 100 µM
[2]
  TGI: > 100 µM
[3]
  TGI: > 100 µM
[4]
  TGI: > 100 µM
[5]
  TGI: 4.97 µM
[6]
  TGI: 34 µM
[7]
  TGI: > 100 µM
[8]
  TGI: 69 µM
[9]
  TGI: > 100 µM
[10]
  TGI: > 100 µM
[11]
  TGI: > 100 µM
[48]
  TGI: > 100 µM
[12]
  TGI: 76.8 µM
[13]
  TGI: 92.5 µM
[49]
  TGI: 65.5 µM
[14]
  TGI: > 100 µM
[50]
  TGI: > 100 µM
[15]
  TGI: > 100 µM
[16]
  TGI: > 100 µM
[51]
  TGI: > 100 µM
[17]
  TGI: > 100 µM
[18]
  TGI: > 100 µM
[19]
  TGI: > 100 µM
[21]
  TGI: > 100 µM
[22]
  TGI: > 100 µM
[52]
  TGI: > 100 µM
[23]
  TGI: > 100 µM
[24]
  TGI: > 100 µM
[25]
  TGI: > 100 µM
[26]
  TGI: > 100 µM
[27]
  TGI: > 100 µM
[28]
  TGI: > 100 µM
[29]
  TGI: > 100 µM
[30]
  TGI: > 100 µM
[31]
  TGI: 93.5 µM
[33]
  TGI: > 100 µM
[34]
  TGI: > 100 µM
[35]
  TGI: > 100 µM
[36]
  TGI: > 100 µM
[37]
  TGI: > 100 µM
[53]
  TGI: > 100 µM
[38]
  TGI: > 100 µM
[39]
  TGI: > 100 µM
[40]
  TGI: > 100 µM
[54]
  TGI: > 100 µM
[42]
  TGI: > 100 µM
[43]
  TGI: > 100 µM
[44]
  TGI: > 100 µM
[45]
  TGI: > 100 µM
[46]
  TGI: 95.4 µM
[47]
  TGI: > 100 µM
